Source: ChEMBL document CHEMBL1201862, “PubChem BioAssay data set” (2004)
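Step 1: Grow cells in 96-well plates. Step 2: Expose to compound for 48 hours at 5 concentrations. Step 3: Interpolate endpoints linearly; if unreached, use highest concentration. GI50 is the concentration that inhibits growth by half.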 The source made the active and inactive calls. Rule as the data show it: active = GI50 up to about 1.1 µM and inactive = higher.

Experiments:
Experiment in all cases: growth of human tumour cells (NCI), 48 h
[1] = test system: 786-0
[2] = test system: A498
[3] = test system: A549
[4] = test system: ACHN
[5] = test system: BT-549
[6] = test system: CAKI-1
[7] = test system: CCRF-CEM
[8] = test system: COLO 205
[9] = test system: DU-145
[10] = test system: EKVX
[11] = test system: HCC 2998
[12] = test system: HCT-116
[13] = test system: HCT-15
[14] = test system: HOP-62
[15] = test system: HOP-92
[16] = test system: HT-29
[17] = test system: Hs-578T
[18] = test system: IGROV-1
[19] = test system: K562
[20] = test system: KM12
[21] = test system: M14
[22] = test system: MCF7
[23] = test system: MDA-MB-231
[24] = test system: MDA-MB-435
[25] = test system: MDA-N
[26] = test system: MOLT-4
[27] = test system: Malme-3M
[28] = test system: NCI-H23
[29] = test system: NCI-H460
[30] = test system: NCI-H522
[31] = test system: NCI/ADR-RES
[32] = test system: OVCAR-3
[33] = test system: OVCAR-4
[34] = test system: OVCAR-5
[35] = test system: OVCAR-8
[36] = test system: PC-3
[37] = test system: RPMI-8226
[38] = test system: RXF 393
[39] = test system: SF-268
[40] = test system: SF-295
[41] = test system: SK-MEL-28
[42] = test system: SK-MEL-2
[43] = test system: SK-MEL-5
[44] = test system: SK-OV-3
[45] = test system: SNB-19
[46] = test system: SNB-75
[47] = test system: SW-620
[48] = test system: TK-10
[49] = test system: U-251
[50] = test system: UACC-257
[51] = test system: UACC-62
[52] = test system: UO-31
[53] = test system: HL-60
[54] = test system: LOX IMVI
[55] = test system: NCI-H226
[56] = test system: SF-539
[57] = test system: SN12C
[58] = test system: SR
[59] = test system: T47D

In the case of `Cc1cc(-c2ccc[nH]2)on1`, the GI50 [1] is reported as > 100 µM (inactive), the GI50 [2] is reported as > 100 µM (inactive) and the GI50 [3] is reported as > 100 µM (inactive). The GI50 [4] was > 100 µM (inactive), the GI50 [5] was > 100 µM (inactive) and the GI50 [6] was > 100 µM (inactive). The GI50 [7] was > 100 µM (inactive), the GI50 [8] was > 100 µM (inactive) and the GI50 [9] was > 100 µM (inactive). For the same compound, the GI50 [10] was > 100 µM (inactive), the GI50 [11] was > 100 µM (inactive) and the GI50 [12] was > 100 µM (inactive). For the same compound, the GI50 [13] was over 100 µM, the GI50 [14] was > 100 µM (inactive) and the GI50 [15] was > 100 µM (inactive). The GI50 [16] was > 100 µM (inactive), the GI50 [17] was > 100 µM (inactive) and the GI50 [18] was > 100 µM (inactive). The GI50 [19] was > 100 µM (inactive), the GI50 [20] was > 100 µM (inactive) and the GI50 [21] was > 100 µM (inactive). The GI50 [22] was > 100 µM (inactive), the GI50 [23] was > 100 µM (inactive) and the GI50 [24] was > 100 µM (inactive). The GI50 [25] was > 100 µM (inactive), the GI50 [26] was > 100 µM (inactive) and the GI50 [27] was > 100 µM (inactive). The GI50 [28] was > 100 µM (inactive), the GI50 [29] was > 100 µM (inactive) and the GI50 [30] was > 100 µM (inactive). For the same compound, the GI50 [31] was > 100 µM (inactive), the GI50 [32] was > 100 µM (inactive) and the GI50 [33] was > 100 µM (inactive). The GI50 [34] was > 100 µM (inactive), the GI50 [35] was > 100 µM (inactive) and the GI50 [36] was > 100 µM (inactive). The GI50 [37] was > 100 µM (inactive), the GI50 [38] was > 100 µM (inactive) and the GI50 [39] was > 100 µM (inactive). The GI50 [40] was > 100 µM (inactive), the GI50 [41] was > 100 µM (inactive) and the GI50 [42] was > 100 µM (inactive). The GI50 [43] was > 100 µM (inactive), the GI50 [44] was > 100 µM (inactive) and the GI50 [45] was > 100 µM (inactive). The GI50 [46] was > 100 µM (inactive), the GI50 [47] was > 100 µM (inactive) and the GI50 [48] was > 100 µM (inactive). For the same compound, the GI50 [49] was > 100 µM (inactive), the GI50 [50] was > 100 µM (inactive) and the GI50 [51] was > 100 µM (inactive). For the same compound, the GI50 [52] was > 100 µM (inactive).
For `CCNC1(c2cccc(C)c2)OC(C)(C)c2cccc3cccc1c23` (stereo not drawn), the GI50 [1] was 18.8 µM (inactive), the GI50 [2] was 17.5 µM (inactive) and the GI50 [3] was 15.6 µM (inactive). For the same compound, the GI50 [4] was 17 µM (inactive), the GI50 [5] was 18.9 µM (inactive) and the GI50 [6] was 19.8 µM (inactive). The GI50 [7] was 2.5 µM (inactive), the GI50 [8] was 16.1 µM (inactive) and the GI50 [9] was 17.7 µM (inactive). For the same compound, the GI50 [10] was 18.8 µM (inactive), the GI50 [12] was 27 µM (inactive) and the GI50 [13] was 19.6 µM. The GI50 [53] was 0.646 µM (active), the GI50 [14] was 21 µM (inactive) and the GI50 [15] was 3.83 µM (inactive). The GI50 [16] was 14 µM (inactive), the GI50 [17] was 20.1 µM (inactive) and the GI50 [18] was 17.8 µM (inactive). For the same compound, the GI50 [19] was 11.7 µM (inactive), the GI50 [20] was 21.9 µM (inactive) and the GI50 [54] was 17.3 µM (inactive). For the same compound, the GI50 [21] was 17.8 µM (inactive), the GI50 [22] was 17.7 µM (inactive) and the GI50 [24] was 16.9 µM (inactive). For the same compound, the GI50 [25] was 19.3 µM (inactive), the GI50 [27] was 16.3 µM (inactive) and the GI50 [55] was 19.9 µM (inactive). For the same compound, the GI50 [28] was 17.9 µM (inactive), the GI50 [29] was 15.2 µM (inactive) and the GI50 [30] was 15.1 µM (inactive). For the same compound, the GI50 [31] was 19.8 µM (inactive), the GI50 [32] was 17.3 µM (inactive) and the GI50 [33] was 16 µM (inactive). The GI50 [34] was 19.1 µM (inactive), the GI50 [35] was 18.4 µM (inactive) and the GI50 [37] was 0.0321 µM (active). The GI50 [38] was 16.8 µM (inactive), the GI50 [39] was 16 µM (inactive) and the GI50 [40] was 17.9 µM (inactive). The GI50 [56] was 17.9 µM (inactive), the GI50 [42] was 15.7 µM (inactive) and the GI50 [43] was 19.1 µM (inactive). The GI50 [44] was 17.7 µM (inactive), the GI50 [57] was 19 µM (inactive) and the GI50 [45] was 18.2 µM (inactive). For the same compound, the GI50 [46] was 15 µM (inactive), the GI50 [58] was 5.16 µM (inactive) and the GI50 [47] was 17.8 µM (inactive). For the same compound, the GI50 [59] was 26.9 µM (inactive), the GI50 [48] was 17.3 µM (inactive) and the GI50 [49] was 16.9 µM (inactive). The GI50 [50] was 18.8 µM (inactive), the GI50 [51] was 15.6 µM (inactive) and the GI50 [52] was 16.1 µM (inactive).
With `CN(C)C(=O)Oc1ccc(C(=S)Nc2ccccc2)cc1` the GI50 [1] was > 100 µM (inactive), the GI50 [2] was > 100 µM (inactive) and the GI50 [3] was 66.2 µM (inactive). For the same compound, the GI50 [4] was > 100 µM (inactive), the GI50 [5] was 32 µM (inactive) and the GI50 [6] was > 100 µM (inactive). The GI50 [7] was 26.6 µM (inactive), the GI50 [8] was 65.2 µM (inactive) and the GI50 [9] was > 100 µM (inactive). The GI50 [10] was 45.9 µM (inactive), the GI50 [11] was > 100 µM (inactive) and the GI50 [12] was > 100 µM (inactive). For the same compound, the GI50 [13] was 97.5 µM, the GI50 [53] was 21.6 µM (inactive) and the GI50 [14] was > 100 µM (inactive). The GI50 [16] was 51.2 µM (inactive), the GI50 [17] was > 100 µM (inactive) and the GI50 [18] was 34 µM (inactive). For the same compound, the GI50 [19] was 24.8 µM (inactive), the GI50 [20] was 49.7 µM (inactive) and the GI50 [54] was 60.1 µM (inactive). For the same compound, the GI50 [21] was 41.2 µM (inactive), the GI50 [22] was 76 µM (inactive) and the GI50 [24] was 42.3 µM (inactive). The GI50 [25] was 37.4 µM (inactive), the GI50 [26] was 18.3 µM (inactive) and the GI50 [27] was 89.3 µM (inactive). The GI50 [28] was 28.6 µM (inactive), the GI50 [29] was 40.5 µM (inactive) and the GI50 [30] was 64.4 µM (inactive). For the same compound, the GI50 [31] was 26.4 µM (inactive), the GI50 [32] was 86.5 µM (inactive) and the GI50 [33] was 32.1 µM (inactive). For the same compound, the GI50 [34] was > 100 µM (inactive), the GI50 [35] was 25.6 µM (inactive) and the GI50 [36] was 96.4 µM (inactive). For the same compound, the GI50 [37] was 64.1 µM (inactive), the GI50 [39] was > 100 µM (inactive) and the GI50 [40] was 87.7 µM (inactive). For the same compound, the GI50 [56] was > 100 µM (inactive), the GI50 [41] was 33.1 µM (inactive) and the GI50 [42] was > 100 µM (inactive). The GI50 [43] was 24 µM (inactive), the GI50 [44] was > 100 µM (inactive) and the GI50 [45] was > 100 µM (inactive). The GI50 [58] was 46.8 µM (inactive), the GI50 [47] was > 100 µM (inactive) and the GI50 [59] was 53.6 µM (inactive). The GI50 [49] was > 100 µM (inactive), the GI50 [50] was 34.8 µM (inactive) and the GI50 [51] was 35.9 µM (inactive). For the same compound, the GI50 [52] was 75.3 µM (inactive).
